From patent US20110130374A1, “Small Pyrimidine Derivatives and Methods of Use Thereof” (BIOSEARCH(2007) LTD., priority 2009, published 2011) come the findings set out here.

One data set deals with A375 cells. Briefly: Cell viability, WST-1 reagent, A375 cells grown in two-dimension. The format is cell-based. To be noted: WST-1, 72 h post treatment. The procedure: Compound 1 (PRT7000467), Compound 2 (PRT7041128), and Compound 3 (PRT7081582) are not toxic to cells grown in two-dimension. A375 cells were cultured with RPMI and 10% FBS. The cells were treated with different concentrations of Compound 1 (PRT7000467) and Compound 2 (PRT7041128), then the viability of the cells was determined seventy-two hours post treatment using WST-1 reagent (Roche) (FIG. 1B)

Data set [1] concerns B16F10 murine melanoma cells. Briefly: Anti-metastasis assay: lung metastases in mice implanted with B16F10 melanoma cells. The format is in vivo, female B6D2F1 mice. The note with it: i.p., start D3, foci count on D17 vs comparator mice; dose regimen of the value not stated (FIGS. 4A and B). On the procedure: Compound 1 and Compound 3 were tested for efficacy in inhibiting lung metastases in female B6D2F 1 mice implanted with B16F10 murine melanoma cells. Tumors were initiated on Day 1 (D1) by intravenously (i.v.) injecting 1×10^5 B16F10 tumor cells into the tail vein of test mice. Mice were sorted into three vehicle-treated control groups (n=20 or 10/group) and nine treatment groups (n=10/group). Compound 1 and Compound 3 monotherapies were administered at 10 mg/kg (2 mg/mL at 5 mL/kg) and at 20 mg/kg (4 mg/mL at 5 mL/kg), intraperitoneally (i.p.), daily for fourteen doses starting on D3 (qd×14 (start D3)). Compound 1 and Compound 3 monotherapies also were administered at 20 mg/kg (4 mg/mL at 5 mL/kg), i.p., twice daily for twenty-nine doses starting on D3 (bid×14.5 (start D3)). […]
The study endpoint was defined as 100 metastases per lung set in animals periodically sampled from the saline control group. […] All animals remaining on study were euthanized, their metastases were counted, and the mean±SEM foci count for each group was calculated. Efficacy was determined by an analysis of percent inhibition, the percent change in the mean foci count on D17 for treated versus comparator mice, and by statistical assessment of differences in foci counts between treated and comparator mice.

A further data set has as its system oxazolone-induced DTH. As to the kind of experiment: Oxazolone-induced delayed-type hypersensitivity (DTH), ear swelling. The note with it: oral, 1 hour before oxazolone challenge; compared with the control (FIG. 5). The format is in vivo, BALB/c mice. The text has this: Anti inflammatory assay A delayed-type hypersensitivity (DTH) reaction is an expression of cell-mediated immunity and plays a major role in the pathology and chronicity of many inflammatory disorders. Delayed-type hypersensitivity (DTH) reactions can be induced by various allergens, including oxazolone, 2,4-dinitrofluorobenzene (DNFB) and sheep red blood cells (SRBCs). One of the most characteristic DTH phenomenons is contact hypersensitivity, which is characterized by swelling and by increased tissue levels of cytokines. Contact hypersensitivity (CHS) is a T cell-mediated immune reaction in response to cutaneous sensitization and challenge with reactive haptens that are capable of binding directly to soluble and cell-associated proteins and recognized by T cells in the context of self-MHC products. The cells that recognize antigen-protein complex in the skin are the Langerhans cells (LCs). […]
Ear swelling response will be determined by ear thickness measured with a micrometer before and 24 hours after oxazolone challenge and reported as the mean change in ear thickness (ΔT±S.E.M.). Percent suppression of ear swelling response will be calculated as % suppression=[1−(ΔT of sensitized mice exposed to experimental treatment/ΔT of sensitized mice exposed to vehicle treatment)]×100.

Turning to `Cc1cc(C)nc(NS(=O)(=O)c2ccc(NC(=O)/C(=C\c3cccs3)NC(=O)c3cccs3)cc2)n1` [Compound 1], in the data set with A375 cells, the “toxicity to cells grown in two-dimension” value is reported as “not toxic”. In addition, the “efficacy in inhibiting lung metastases (percent inhibition of mean foci count)” value in data set [1] came out at 51%. Further, in the data set with oxazolone-induced DTH, the “anti-inflammatory activity (ear swelling response)” value is on record as “same anti-inflammatory activity as the control”.
The matching figures for `Cc1cc(S(=O)(=O)Nc2ncccn2)ccc1NC(=O)/C(=C\c1cccs1)NC(=O)c1cccs1` [Compound 3]: “not toxic”, 45% and “same anti-inflammatory activity as the control”.
